Where “and” joins values, the source holds several entries; their conditions need not be identical. Identical values can stand only once. Like-named read-outs stand apart in the source and are kept apart here.
Key:
PV-1 = assay: microbe, parasite or virus in culture; assay type: cell-based, poliovirus 1
[1] = system: representative EVs and RVs; assay type: cell-based
EV-A71 = assay: microbe, parasite or virus in culture; assay type: cell-based, enterovirus A71
human DAT = biological target: T1, human DAT (Homo sapiens, UniProt Q01959); assay type: cell-based; conditions: for DAT, Mean (Figure 8B): Control = 100
T1 construct: expressed in transfected cells; host or cells: HEK293 (gift of Dr. Hoener, F. Hoffmann-La Roche)

CV-B3 = assay: microbe, parasite or virus in culture; assay type: cell-based, coxsackievirus B3
human SERT = biological target: T2, human SERT (Homo sapiens, UniProt P31645); assay type: cell-based; conditions: for SERT, Mean (Figure 8B): Control = 100.00; for SERT, Mean as % (Figure 8B): Control = 100%
T2 construct: expressed in transfected cells; host or cells: HEK293 (gift of Dr. Hoener, F. Hoffmann-La Roche)

HRV-B14 = assay: microbe, parasite or virus in culture; assay type: cell-based, human rhinovirus

T2 sequence (P31645 whole entry): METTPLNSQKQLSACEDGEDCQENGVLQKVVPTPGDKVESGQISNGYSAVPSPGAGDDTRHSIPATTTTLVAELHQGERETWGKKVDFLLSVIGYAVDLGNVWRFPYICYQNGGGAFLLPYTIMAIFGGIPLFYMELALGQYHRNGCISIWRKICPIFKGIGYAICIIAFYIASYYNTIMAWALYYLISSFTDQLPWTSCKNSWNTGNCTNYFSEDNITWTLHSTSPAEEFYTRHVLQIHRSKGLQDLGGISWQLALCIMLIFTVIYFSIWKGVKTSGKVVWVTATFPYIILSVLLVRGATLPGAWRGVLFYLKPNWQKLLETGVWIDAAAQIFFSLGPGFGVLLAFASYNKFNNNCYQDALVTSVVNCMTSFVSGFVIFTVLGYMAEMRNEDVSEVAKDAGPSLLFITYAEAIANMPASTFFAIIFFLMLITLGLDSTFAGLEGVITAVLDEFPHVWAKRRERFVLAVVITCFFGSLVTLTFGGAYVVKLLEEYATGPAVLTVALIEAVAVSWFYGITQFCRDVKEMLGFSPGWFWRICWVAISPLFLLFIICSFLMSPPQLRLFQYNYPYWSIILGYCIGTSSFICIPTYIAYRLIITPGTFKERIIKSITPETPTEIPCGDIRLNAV
T1 sequence (Q01959 whole entry): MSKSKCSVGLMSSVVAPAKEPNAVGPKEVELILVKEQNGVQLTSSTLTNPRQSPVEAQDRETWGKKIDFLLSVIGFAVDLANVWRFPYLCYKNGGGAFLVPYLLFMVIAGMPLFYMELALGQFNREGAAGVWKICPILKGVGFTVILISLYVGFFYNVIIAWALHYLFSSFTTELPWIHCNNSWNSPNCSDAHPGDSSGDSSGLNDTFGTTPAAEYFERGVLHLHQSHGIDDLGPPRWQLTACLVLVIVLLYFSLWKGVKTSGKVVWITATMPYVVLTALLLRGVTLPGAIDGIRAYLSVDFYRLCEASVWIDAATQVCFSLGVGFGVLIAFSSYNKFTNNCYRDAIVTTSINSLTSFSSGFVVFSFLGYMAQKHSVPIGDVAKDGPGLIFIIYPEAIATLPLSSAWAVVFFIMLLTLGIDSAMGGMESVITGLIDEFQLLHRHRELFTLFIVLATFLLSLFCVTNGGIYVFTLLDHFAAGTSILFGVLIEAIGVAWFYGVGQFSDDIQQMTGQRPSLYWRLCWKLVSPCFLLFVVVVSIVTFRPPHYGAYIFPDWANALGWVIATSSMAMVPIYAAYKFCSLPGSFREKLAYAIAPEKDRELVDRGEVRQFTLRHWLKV

O=C(c1cc[nH]c1)N(Cc1ccc(F)cc1)c1ccccc1 [Compound 12b, N-(4-Fluorobenzyl)-N-phenyl-1H-pyrrole-3-carboxamide]
Figure 7 dose-response raw data, PV-1 (triplicate values) (PV-1; Concentration 11.1111 µM): 100.535 and 102.561 and 105.184
Figure 7 dose-response raw data, PV-1 (triplicate values) (PV-1; Concentration 33.3333 µM): 94.7887 and 93.7377 and 106.219
Figure 7 dose-response raw data, PV-1 (triplicate values) (PV-1; Concentration 100 µM): 94.2632 and 96.1025 and 105.824
EC50 (PV-1; Enterovirus C, HeLa R19, read-out: Table in Figure 7A, Polio, AVERAGE): 1390 nM
EC50 (PV-1; Enterovirus C, HeLa R19, read-out: Table in Figure 7A, Polio, exp1-exp3): 1760 nM
EC50 (PV-1; read-out: Table in Figure 7A, Polio, exp1-exp3): 1420 nM and 990 nM
spectrum of antiviral activity (in words) [1]: improved antiviral profile against all tested viruses
Figure 7 dose-response raw data, EV-A71 (triplicate values) (EV-A71; Concentration 0.0046 µM): 8.524 and 14.1813 and 13.8349
Figure 7 dose-response raw data, EV-A71 (triplicate values) (EV-A71; Concentration 0.0137 µM): 8.178 and 10.6023 and 11.4104
Figure 7 dose-response raw data, EV-A71 (triplicate values) (EV-A71; Concentration 0.0412 µM): 8.755 and 10.1405 and 13.8349
Figure 7 dose-response raw data, EV-A71 (triplicate values) (EV-A71; Concentration 0.1235 µM): 8.6396 and 9.794 and 10.7177
Figure 7 dose-response raw data, EV-A71 (triplicate values) (EV-A71; Concentration 0.3704 µM): 31.7298 and 16.0285 and 26.5345
Figure 7 dose-response raw data, EV-A71 (triplicate values) (EV-A71; Concentration 1.1111 µM): 89.9407 and 116.561 and 102.065
Figure 7 dose-response raw data, EV-A71 (triplicate values) (EV-A71; Concentration 3.3333 µM): 91.1267 and 117.088 and 97.8476
Figure 7 dose-response raw data, EV-A71 (triplicate values) (EV-A71; Concentration 11.1111 µM): 100.747 and 119.064 and 107.468
Figure 7 dose-response raw data, EV-A71 (triplicate values) (EV-A71; Concentration 33.3333 µM): 107.747 and 119.064 and 117.468
Figure 7 dose-response raw data, EV-A71 (triplicate values) (EV-A71; Concentration 100 µM): 110.747 and 119.064 and 107.468
EC50 (EV-A71; Enterovirus A, EVA71, HeLa R19, read-out: Table in Figure 7A, EV-A71, AVERAGE): 490 nM
DAT, Mean (Figure 8B) (human DAT; 1µM): 98.697
DAT, Mean as % (Figure 8B) (human DAT; 1µM, Control = 100%): 103%
DAT, Mean (Figure 8B) (human DAT; 100µM): 90.1253
inhibition of DAT function (in words) (human DAT; HEK293 cells expressing human DAT, 1 μM or 100 μM): neither 12a, 19b, 19d, nor the combined compound 12b inhibited
Figure 7 dose-response raw data, CV-B3 (triplicate values) (CV-B3; Concentration 0.001 µM): 12.7273 and 16.4436 and 14.7652
Figure 7 dose-response raw data, CV-B3 (triplicate values) (CV-B3; Concentration 0.0046 µM): 88.2521 and 78.519 and 79.7121
Figure 7 dose-response raw data, CV-B3 (triplicate values) (CV-B3; Concentration 0.0137 µM): 101.732 and 101.506 and 105.007
Figure 7 dose-response raw data, CV-B3 (triplicate values) (CV-B3; Concentration 0.0412 µM): 102.861 and 101.167 and 103.426
Figure 7 dose-response raw data, CV-B3 (triplicate values) (CV-B3; Concentration 0.1235 µM): 99.9247 and 100.263 and 102.748
Figure 7 dose-response raw data, CV-B3 (triplicate values) (CV-B3; Concentration 0.3704 µM): 101.957 and 103.877 and 102.635
Figure 7 dose-response raw data, CV-B3 (triplicate values) (CV-B3; Concentration 1.1111 µM): 101.393 and 99.9247 and 103.426
Figure 7 dose-response raw data, CV-B3 (triplicate values) (CV-B3; Concentration 3.3333 µM): 102.974 and 100.151 and 104.555
Figure 7 dose-response raw data, CV-B3 (triplicate values) (CV-B3; Concentration 10 µM): 101.167 and 95.9721 and 104.668
EC50 (CV-B3; Enterovirus B, CVB3, HeLa R19, read-out: Table in Figure 7A, CV-B3, AVERAGE): 2.9 nM
EC50 (CV-B3; Enterovirus B, CVB3, HeLa R19, read-out: Table in Figure 7A, CV-B3, exp1-exp3): 2.98 nM
EC50 (CV-B3; read-out: Table in Figure 7A, CV-B3, exp1-exp3): 3.2 nM and 2.55 nM
SERT, Mean (Figure 8B) (human SERT; 1µM): 88.76
SERT, Mean as % (Figure 8B) (human SERT; 1µM): 89%
SERT, Mean (Figure 8B) (human SERT; 100µM): 102.47
SERT, Mean as % (Figure 8B) (human SERT; 100µM): 102%
inhibition of SERT-mediated uptake (in words) (human SERT; HEK293 cells expressing human SERT, 1 and 100 μM): neither 12a, 19b, 19d, nor the combined compound 12b inhibited
Figure 7 dose-response raw data, HRV_B14 (triplicate values) (HRV-B14; Concentration 0.0046 µM): 15.2266 and 14.5606
Figure 7 dose-response raw data, HRV_B14 (triplicate values) (HRV-B14; Concentration 0.0137 µM): 10.2522 and 17.3246 and 10.943
Figure 7 dose-response raw data, HRV_B14 (triplicate values) (HRV-B14; Concentration 0.0412 µM): 15.2266 and 14.5606 and 17.3246
Figure 7 dose-response raw data, HRV_B14 (triplicate values) (HRV-B14; Concentration 0.1235 µM): 106.02 and 106.455 and 105.786
Figure 7 dose-response raw data, HRV_B14 (triplicate values) (HRV-B14; Concentration 0.3704 µM): 105.351 and 107.391 and 106.589
Figure 7 dose-response raw data, HRV_B14 (triplicate values) (HRV-B14; Concentration 1.1111 µM): 98.3946 and 107.926 and 101.94
Figure 7 dose-response raw data, HRV_B14 (triplicate values) (HRV-B14; Concentration 3.3333 µM): 99.5652 and 104.147 and 110.034
Figure 7 dose-response raw data, HRV_B14 (triplicate values) (HRV-B14; Concentration 11.1111 µM): 98.3946 and 107.926 and 101.94
Figure 7 dose-response raw data, HRV_B14 (triplicate values) (HRV-B14; Concentration 33.3333 µM): 99.2522 and 114.147 and 100.034
Figure 7 dose-response raw data, HRV_B14 (triplicate values) (HRV-B14; Concentration 100 µM): 99.5652 and 104.147 and 100.034
EC50 (HRV-B14; Human rhinovirus sp., HRV14 / HRVB14, HeLa R19, read-out: Table in Figure 7A, HRV14, AVERAGE): 95.3 nM
EC50 (HRV-B14; Human rhinovirus sp., HRV14 / HRVB14, HeLa R19, read-out: Table in Figure 7A, HRV14, exp1-exp3): 112 nM
EC50 (HRV-B14; Human rhinovirus sp., HRVB14, HeLa R19, read-out: EC50 HRV-B14): 95 ± 120 nM
EC50 (HRV-B14; read-out: Table in Figure 7A, HRV14, exp1-exp3): 90 nM and 84 nM
